{
  "source": "patent US20190125745A1",
  "about": "“TREATMENT AND DIAGNOSIS OF CANCER” (Rgenix, Inc., priority 2014, published 2019)",
  "key": {"[1]": {"test_system": "SK-Mel-239 vemurafenib-resistant clone cells", "settings": "diet 100 mg/kg"}, "[2]": {"test_system": "ApoE expression", "assay": "ApoE expression by qRT-PCR in human melanoma cells", "protocol": "(A-B) Parental MeWo cells were incubated in the presence of DMSO or GW3965 at the indicated concentrations. After 48 hours, total RNA was extracted, and the levels of ApoE (A) and DNAJA4 (B) were determined by qRT-PCR. n=3. (C) Cell invasion by 1×10^5 parental MeWo cells pre-treated with GW3965 or DMSO for 48 hours. n=6-7. p-values based on a one-sided student's t-test. […] (D) Endothelial recruitment by 5×10^4 parental MeWo cells pre-treated with GW3965 or DMSO for 48 hours. n=6-7. p-values based on a one-sided student's t-test. (E) Mice were fed with grain-based chow diet containing GW3965 (20 mg/kg) or a control diet. After 10 days, 4×10^4 parental MeWo cells were tail-vein injected into mice, and the mice were continuously fed with GW3965-containing chow or a control diet throughout the experiment.\n(A-C) MeWo (A), HT-144 (B), and WM-266-4 (C) human melanoma cells were treated with GW3965 or T0901317 at the indicated concentrations for 48 hours, and the expression levels of ApoE were analysed by qRT-PCR. n=3. (D) Extracellular ApoE protein levels, quantified by ELISA, in serum-free conditioned media collected from HT-144 human melanoma cells treated with DMSO, GW3965, or T0901317 at 1 μM for 72 hours. n=3-4. […] (I-J) Relative ApoE expression, quantified by qRT-PCR, in MeWo (I) and HT-144 (J) cells transduced with a control shRNA or shRNAs targeting LXRα or LXRβ and subsequently treated with DMSO, GW3965, or T0901317 at 1 μM for 48 hours. n=3-9. (K) Extracellular ApoE protein levels, measured by ELISA, in serum-free conditioned media harvested from HT-144 cells transduced with a control shRNA or an shRNA targeting LXRα or LXRβ and treated with DMSO or GW3965 at 1 μM for 72 hours. n=3.\nRNA was extracted from whole cell lysates using the Total RNA Purification Kit (17200, Norgen, Thorold, Canada). 600 ng of total RNA was then reverse transcribed into cDNA using the cDNA First-Strand Synthesis Kit (18080-051, Invitrogen), and quantitative real-time PCR amplification was performed as previously described (Pencheva et al., 2012) using an ABI Prism 7900HT Real-Time PCR System (Applied Biosystems, Austin, Tex.). […]\nFor every sample, 600 ng of RNA was reverse transcribed into cDNA using the cDNA First-Strand Synthesis kit (Invitrogen). […] Each reaction was carried out in quadruplicates, and ApoE mRNA expression levels were measured by quantitative real-time PCR amplification using an ABI Prism 7900HT Real-Time PCR System (Applied Biosystems). The relative ApoE expression was determined using the ΔΔCt method."}, "[3]": {"test_system": "RCC human renal cancer cells, PANC1 human pancreatic cancer cells, H460 human lung cancer cells", "assay": "Trans-well matrigel invasion of renal, pancreatic and lung cancer cells", "assay_type": "cell-based", "settings": "1 μM, 72 hours", "description": "FIG. 17. Treatment with the LXR agonist GW3965 inhibits In Vitro tumor cell invasion of renal cancer, pancreatic cancer, and lung cancer.\nFollowing serum starvation, the cells were subjected to the trans-well invasion assay using a matrigel invasion chamber system (354480, BD Biosciences). Invasion chambers were pre-equilibrated prior to the assay by adding 0.5 mL of starvation media to the top and bottom wells. Meanwhile, cancer cells were trypsinized and viable cells were counted using trypan blue. Cancer cells were then resuspended at a concentration of 1×10^5 cells/1 mL starvation media, and 0.5 mL of cell suspension, containing 5×10^4 cells, was seeded into each trans-well. The invasion assay was allowed to proceed for 24 hours at 37′C. […] Following fixation, the inserts were washed in PBS and then cut out and mounted onto slides using VectaShield mounting medium containing DAPI nuclear stain (H-1000, Vector Laboratories). The basal side of each insert was imaged using an inverted fluorescence microscope (Zeiss Axiovert 40 CFL) at 5× magnification, and the number of DAPI-positive cells was quantified using ImageJ."}, "[4]": {"test_system": "DTIC-resistant MeWo human melanoma cells", "settings": "oral, diet 100 mg/kg", "description": "Tumor growth was measured twice a week."}, "[5]": {"test_system": "SK-Mel-2 human melanoma cells", "assay": "Subcutaneous SK-Mel-2 tumor growth in immunocompromised mice", "assay_type": "in vivo", "settings": "oral", "description": "FIG. 4. Therapeutic LXR Activation Inhibits Melanoma Tumor Growth. […] Representative tumor images shown correspond to tumors extracted at the final day (d12). n=10-18 (A), 8-10 (B). (C-E) Primary tumor growth by 1×10^6 MeWo (C), […] SK-Mel-334.2 (D), and 2×10^6 SK-Mel-2 (E) human melanoma cells subcutaneously injected into immunocompromised mice. […] Tumor images shown correspond to last day of measurements. n=6-34 (C), 8 (D), 5 (E). (F) 5×10^4 B16F10 cells were injected subcutaneously into C57BL/6-WT mice. Upon tumor growth to 150 mm^3, mice were fed continuously with a control chow or a chow containing GW3965 (150 mg/kg), and tumor growth was measured daily. n=6-13. […] Tumor volume was calculated as (small diameter)^2×(large diameter)/2. […] Scale bars, 5 mm (A-D), 50 μm (J, K), 25 μm (L)."}, "[6]": {"test_system": "MeWo human melanoma cells", "assay": "Tail-vein lung metastatic colonization by MeWo cells in NOD Scid mice", "assay_type": "in vivo", "settings": "MeWo cells pre-treated 1 μM, 48 hours", "description": "FIG. 6. LXR Agonism Suppresses Melanoma Metastasis to the Lung and Brain. (A) MeWo cells were pre-treated with DMSO or GW3965 (1 μM) for 48 hours and 4×10^4 cells were intravenously injected via the tail-vein into NOD Scid mice. Lung colonization was monitored by weekly bioluminescence imaging. Representative H&E-stained lungs correspond to the final day (d70) are shown. n=4-5. (B-C) Bioluminescence imaging of lung metastasis by 4×10^4 MeWo cells intravenously injected into NOD Scid mice that were fed a control chow or a chow containing GW3965 (20 mg/kg) or T0901317 (20 mg/kg) starting 10 days prior to cancer cell injection. Representative H&E-stained lungs correspond to final imaging day n=5-6. […] (H) Ex-vivo lung photon flux, determined by bioluminescence imaging, in NOD Scid mice that were administered a control chow or a chow containing GW3965 (100 mg/kg) for 1 month following the excision of size-matched (˜300-mm^3 in volume) subcutaneous melanoma tumors formed by 1×10^6 MeWo melanoma cells. […] Following initiation of metastases, detected by bioluminescence imaging on d42, mice were administered a control diet or a GW3965 diet (100 mg/kg) as indicated, and lung colonization progression was measured weekly. n=6. […]"}},
  "note": "Counter-ions that a name gives are not always drawn.",
  "data": [
    {"smiles": "O=C(O)Cc1cccc(OCCCN(Cc2cccc(C(F)(F)F)c2Cl)CC(c2ccccc2)c2ccccc2)c1", "note": "[GW3965 108, 3-[3-[N-(2-Chloro-3-trifluoromethylbenzyl)-(2,2-diphenylethyl)amino]propyloxy] phenylacetic acid hydrochloride]", "values": [
      {"measurement": "suppression of growth of the SK-Mel-239 vemurafenib-resistant line", "setting": "[1]", "value": 72, "unit": "%"},
      {"measurement": "potency of inducing ApoE expression in vitro", "setting": "[2]", "value": "potently induce"},
      {"measurement": "tumor cell invasion in all three cancer types tested", "setting": "[3]", "value": "inhibition"},
      {"measurement": "growth of in vivo-derived DTIC-resistant human melanoma tumors (MeWo)", "setting": "[4]", "value": "strongly inhibited"},
      {"measurement": "inhibition of tumor growth, SK-Mel-2", "setting": "[5]", "value": 49, "unit": "%"},
      {"measurement": "reduction in metastatic colonization capacity after pre-treatment of cells", "setting": "[6]", "value": "more than 50 fold"}
    ]}
  ]
}
